Results reported in US20020061325A1, “Container for 4-allylanisole and analog scolytid pesticides” (priority 1993, published 2002).

Assays:
[1] = system: southern pine beetle; assay: Laboratory assay for effectiveness of repellent (circle of compound on cardboard, beetle response); assay type: in vivo; design: BEHAVIORAL RATING: scale not given here; conditions: for BEHAVIORAL RATING: numerical score for degree of behavioral response; for repelled behavioral response (in words): laboratory tests
Experimental: A) Laboratory Assay for Effectiveness of Repellent
The candidate compound was applied as a circle (17 cm in diameter by 5 mm in width) to a 28 by 21.5 cm piece of uncoated cardboard using a camel-hair brush. Three minutes after application, a beetle was placed in the center of the circle. In each trial, at least 20 healthy-appearing beetles were tested. Testing was conducted at room temperature (22°-25° C.) with light supplied from an adjoining room. The beetles were briefly refrigerated prior to testing to reduce their tendency to fly immediately upon release. An object was used to cast a shadow over the test circle in order to minimize response to light, which could interfere with the interpretation of insect response to an applied substance.

[2] = Release rate by gravimetric measurement of pipette bulbs; assay type: physicochemical; conditions: elution from 4-ml Samco pipette bulb, preliminary studies
Experimental: (§1) Release rates were determined in preliminary studies using simple gravimetric measurement of bulbs to provide elution in mg/day units. Release rates of all analog compounds were equal to or greater than that of 4-allylanisole. Placement of treatments was originally assigned at random and rotated sequentially with each collection. Each array was collected through two full rotations. Whole traps were moved in order to eliminate the possibility of contamination. Collection cups contained a 5.5×2 cm piece of pest strip, containing as its active ingredient the insecticidal agent 2,2 dichlorovinyldimethylphosphate to kill the captured insects. The numbers of captured southern pine beetle and of predatory clerid beetle Thanasimus dubius, the most important natural enemy of the southern pine beetle, were determined. Data were analyzed using ANOVA (SAS PROC GLM) to determine if the mean numbers of southern pine beetles or clerids were affected by treatment. The positions of the traps were also taken into consideration in the model.

[3] = system: southern pine beetle; assay: Field assay with frontalure-baited Lindgren funnel traps; assay type: in vivo; conditions: for rank (relative repellency, 1 = best repellent): frontalure plus test compound; for mean rank: mean over the trials in which the compound was tested; for rank in reduction of trap captures: the two field trials in which they were tested, relative to 4-allylanisole
Experimental: B) Field Assays of the Effectiveness of Repellents
Field assays were carried out with selected 4-allylanisole analogs, including 4-allylanisole, anisole, 4-isopropylanisole, allylbenzene, 4-methylstyrene, toluene, and trans-anethole. The protocol for these assays is similar to that previously described (Hayes, et al., 1994a; Hayes and Strom, 1994c, both incorporated by reference as if fully set forth herein). Populations of local southern pine beetle were tested for response to these compounds using baited Lindgren funnel (16-funnel) traps. Traps were placed in or near active infestations of southern pine beetle over the course of the summer of 1997. Treatment baits consisted of the attractant frontalure and frontalure plus the test compound released from a 4-ml Samco pipette bulb. Hayes, et al., (J. Vozzo [ed.] Research and applications of chemical sciences in forestry: Proceeding of the 4th Southern Station Chemical Sciences Meeting, GTR-SO-104:69-80, 1994). Frontalure is a combination of frontalin, which is an aggregation pheromone of the southern pine beetle, and a-pinene, a synergistic host oleoresin compound. In most cases, each trap array consisted of a total of six traps: one frontalure-only treatment; one frontalure plus 4-allylanisole treatment, and four traps containing treatments of frontalure plus a 4-allylanisole analog. In one instance a 12-trap array was employed, the array having two traps per treatment.
as §1

[4] = 30-second exposure, 3 min after application, at least 20 beetles per trial, 22-25 C
[5] = compounds marked * : originally tested with sample size of 45-53 beetles, published in Hayes et al. 1994

With COc1ccc(C)cc1 [4-methylanisole] the “% REPELLED” value [1, 4] was 45% and the “BEHAVIORAL RATING” value ([1]; 30-second exposure) was 2.
In the case of COc1ccc(C(C)(C)C)cc1 [4-tert-butylanisole], the “% REPELLED” value [1, 4] is reported as 0% and the “BEHAVIORAL RATING” value ([1]; 30-second exposure) is reported as 1.
In the case of CCOc1ccccc1 [phenetole], the “BEHAVIORAL RATING” value ([1]; 30-second exposure) is reported as 2.
For COc1cccc(CO)c1 [3-methoxybenzyl alcohol], the “% REPELLED” value [1, 4] was 0% and the “BEHAVIORAL RATING” value ([1]; 30-second exposure) was 1.
For COc1ccc(C=O)cc1 [p-anisaldehyde], the “% REPELLED” value [1, 4] was 65% and the “BEHAVIORAL RATING” value ([1]; 30-second exposure) was 3.
For Cc1ccc(C)cc1 [p-xylene], the “% REPELLED” value [1, 4] was 50% and the “BEHAVIORAL RATING” value ([1]; 30-second exposure) was 2.
With COc1ccc(C(C)=O)cc1 [4-methoxyacetophenone] the “% REPELLED” value [1, 4] was 96% and the “BEHAVIORAL RATING” value ([1]; 30-second exposure) was 3.
With C=CCc1ccccc1 [allylbenzene] the “% REPELLED” value [1, 5] was over 90%, the release rate [2] was 128.2 mg/day and the “rank (relative repellency, 1 = best repellent)” value ([3]; TRIAL 1) was 5. For the same molecule, the “rank (relative repellency, 1 = best repellent)” value ([3]; TRIAL 2) was 5, the “rank (relative repellency, 1 = best repellent)” value ([3]; TRIAL 5) was 2 and the “rank (relative repellency, 1 = best repellent)” value ([3]; TRIAL 6) was 4. It also gave a mean rank [3] of 4.0.
For CCc1ccccc1O [2-ethylphenol], the “% REPELLED” value [1, 4] was 50% and the “BEHAVIORAL RATING” value ([1]; 30-second exposure) was 2.
With CCOc1ccccc1OC [2-ethoxyanisole] the “% REPELLED” value [1, 4] was 40% and the “BEHAVIORAL RATING” value ([1]; 30-second exposure) was 2.
For COc1ccc(C(C)C)cc1 [4-isopropylanisole], the “% REPELLED” value [1, 5] was over 90%, the release rate [2] was 16.45 mg/day and the “rank (relative repellency, 1 = best repellent)” value ([3]; TRIAL 1) was 4. The “rank (relative repellency, 1 = best repellent)” value ([3]; TRIAL 2) was 2, the “rank (relative repellency, 1 = best repellent)” value ([3]; TRIAL 3) was 2 and the “rank (relative repellency, 1 = best repellent)” value ([3]; TRIAL 4) was 5. For the same molecule, the “rank (relative repellency, 1 = best repellent)” value ([3]; TRIAL 5) was 3, the “rank (relative repellency, 1 = best repellent)” value ([3]; TRIAL 6) was 2 and the mean rank [3] was 3.5.
With Cc1ccc(C(C)C)cc1 [p-cymene] the “% REPELLED” value [1, 4] was 28% and the “BEHAVIORAL RATING” value ([1]; 30-second exposure) was 2.
For C=CCc1ccc(O)c(OC)c1 [eugenol], the “% REPELLED” value [1, 5] was under 40%.
With C=Cc1ccc(OC)cc1 [4-vinylanisole] the “% REPELLED” value [1, 4] was 24% and the “BEHAVIORAL RATING” value ([1]; 30-second exposure) was 2.
For CCCc1ccccc1O [2-propylphenol], the “BEHAVIORAL RATING” value ([1]; 30-second exposure) was 2.
With CCc1ccccc1 [ethylbenzene] the “% REPELLED” value [1, 4] was 72% and the “BEHAVIORAL RATING” value ([1]; 30-second exposure) was 3.
For C/C=C/c1ccc(OC)cc1 [trans-anethole], the “% REPELLED” value [1, 5] was under 20%, the release rate [2] was 44.65 mg/day and the “rank (relative repellency, 1 = best repellent)” value ([3]; TRIAL 3) was 3. For the same molecule, the “rank (relative repellency, 1 = best repellent)” value ([3]; TRIAL 4) was 4, the “rank (relative repellency, 1 = best repellent)” value ([3]; TRIAL 5) was 4 and the “rank (relative repellency, 1 = best repellent)” value ([3]; TRIAL 6) was 6. For the same molecule, the mean rank [3] was 4.25.
In the case of COCC(=O)c1ccccc1 [2-methoxyacetophenone], the “% REPELLED” value [1, 4] is reported as 8% and the “BEHAVIORAL RATING” value ([1]; 30-second exposure) is reported as 2.
In the case of C=CCc1ccc(OC)cc1 [4-allylanisole], the release rate [2] is reported as 15.6 mg/day, the “rank (relative repellency, 1 = best repellent)” value ([3]; TRIAL 1) is reported as 1 and the “rank (relative repellency, 1 = best repellent)” value ([3]; TRIAL 2) is reported as 1. For the same molecule, the “rank (relative repellency, 1 = best repellent)” value ([3]; TRIAL 3) was 1, the “rank (relative repellency, 1 = best repellent)” value ([3]; TRIAL 4) was 1 and the “rank (relative repellency, 1 = best repellent)” value ([3]; TRIAL 5) was 1. The “rank (relative repellency, 1 = best repellent)” value ([3]; TRIAL 6) was 1, the “beetles captured relative to other treatments” value ([3]; all trials) was “fewest” and the mean rank [3] was 1.0.
In the case of COc1ccccc1CO [2-methoxybenzyl alcohol], the “% REPELLED” value [1, 4] is reported as 0% and the “BEHAVIORAL RATING” value ([1]; 30-second exposure) is reported as 1.
With Cc1cccc(C)c1 [m-xylene] the “% REPELLED” value [1, 4] was 34% and the “BEHAVIORAL RATING” value ([1]; 30-second exposure) was 2.
With COc1ccccc1C [2-methylanisole] the “% REPELLED” value [1, 4] was 35% and the “BEHAVIORAL RATING” value ([1]; 30-second exposure) was 1.
In the case of CCCc1ccccc1 [propylbenzene], the “% REPELLED” value [1, 4] is reported as 17% and the “BEHAVIORAL RATING” value ([1]; 30-second exposure) is reported as 1.
For COc1ccc(CC#N)cc1 [4-methoxypheylacetonitrile], the “% REPELLED” value [1, 5] was under 30%.
With CCCCc1ccccc1 [butylbenzene] the “% REPELLED” value [1, 4] was 39% and the “BEHAVIORAL RATING” value ([1]; 30-second exposure) was 2.
In the case of Cc1ccccc1C [o-xylene], the “% REPELLED” value [1, 4] is reported as 46% and the “BEHAVIORAL RATING” value ([1]; 30-second exposure) is reported as 2.
With CC(C)c1ccccc1 [cumene] the “% REPELLED” value [1, 4] was 55% and the “BEHAVIORAL RATING” value ([1]; 30-second exposure) was 3.
With C=Cc1ccc(C)cc1 [4-methylstyrene] the “repelled behavioral response (in words)” value [1] was “modest repellent response”, the “BEHAVIORAL RATING” value ([1]; 30-second exposure) was 2 and the release rate [2] was 674.75 mg/day. For the same molecule, the “rank (relative repellency, 1 = best repellent)” value ([3]; TRIAL 3) was 2, the “rank (relative repellency, 1 = best repellent)” value ([3]; TRIAL 4) was 3 and the mean rank [3] was 2.5. For the same molecule, the “rank in reduction of trap captures” value [3] was “second and third”.
For Cc1ccccc1 [toluene], the “repelled behavioral response (in words)” value [1] was “modest repellent response”, the “BEHAVIORAL RATING” value ([1]; 30-second exposure) was 2 and the release rate [2] was 462.6 mg/day. For the same molecule, the “rank (relative repellency, 1 = best repellent)” value ([3]; TRIAL 1) was 2, the “rank (relative repellency, 1 = best repellent)” value ([3]; TRIAL 2) was 3 and the mean rank [3] was 2.5. For the same molecule, the “rank in reduction of trap captures” value [3] was “second and third”.
In the case of COc1ccc(C=CC#N)cc1 [4-methoxycinnamonitrile], the “% REPELLED” value [1, 5] is reported as under 20%.
With COc1ccccc1 [anisole] the “% REPELLED” value [1, 5] was over 80%, the release rate [2] was 52.2 mg/day and the “rank (relative repellency, 1 = best repellent)” value ([3]; TRIAL 1) was 3. For the same molecule, the “rank (relative repellency, 1 = best repellent)” value ([3]; TRIAL 2) was 4, the “rank (relative repellency, 1 = best repellent)” value ([3]; TRIAL 3) was 4 and the “rank (relative repellency, 1 = best repellent)” value ([3]; TRIAL 4) was 2. The “rank (relative repellency, 1 = best repellent)” value ([3]; TRIAL 5) was 5, the “rank (relative repellency, 1 = best repellent)” value ([3]; TRIAL 6) was 3 and the mean rank [3] was 3.5.
For COc1cccc(C(C)=O)c1 [3-methoxyacetophenone], the “% REPELLED” value [1, 4] was 8% and the “BEHAVIORAL RATING” value ([1]; 30-second exposure) was 2.
For CCCc1ccccc1OC [2-propylanisole], the “% REPELLED” value [1, 4] was 8% and the “BEHAVIORAL RATING” value ([1]; 30-second exposure) was 2.
